Results: ChEMBL document CHEMBL1909046, “DrugMatrix in vitro pharmacology data”

Tests used:
[1] = DRUGMATRIX: Sodium/nucleoside co-transporter radioligand binding (ligand: nitrobenzylthioinosine); format: cell membranes, Cavia porcellus, Dunkin-Hartley, Cerebral cortex, Membrane; settings: Not Active = under 50% inhibition at 10 µM
[2] = target: Beta-1 adrenergic receptor (Homo sapiens, UniProt P08588); assay: DRUGMATRIX: Adrenergic beta1 radioligand binding (ligand: [125I] Cyanopindolol); format: cell membranes, CHO-K1, Membrane; settings: cho-k1; Not Active = under 50% inhibition at 10 µM
Beta-1 adrenergic receptor, sequence (P08588 whole entry): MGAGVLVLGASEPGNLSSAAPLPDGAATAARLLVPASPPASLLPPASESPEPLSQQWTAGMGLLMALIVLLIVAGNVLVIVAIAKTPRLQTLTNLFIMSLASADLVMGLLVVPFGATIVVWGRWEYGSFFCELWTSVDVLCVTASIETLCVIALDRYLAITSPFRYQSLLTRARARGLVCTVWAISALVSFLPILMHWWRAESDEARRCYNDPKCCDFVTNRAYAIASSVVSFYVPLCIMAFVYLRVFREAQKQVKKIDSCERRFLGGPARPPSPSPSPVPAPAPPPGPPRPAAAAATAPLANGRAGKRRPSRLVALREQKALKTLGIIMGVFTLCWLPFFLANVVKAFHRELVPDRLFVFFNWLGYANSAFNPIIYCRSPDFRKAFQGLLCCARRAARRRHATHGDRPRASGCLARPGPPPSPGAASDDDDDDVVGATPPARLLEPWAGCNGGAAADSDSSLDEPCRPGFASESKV

[3] = target: Sodium-dependent noradrenaline transporter (Homo sapiens, UniProt P23975); assay: DRUGMATRIX: Norepinephrine Transporter radioligand binding (ligand: [125I] RTI-55); format: cell membranes, MDCK, Membrane; settings: mdck; Not Active = under 50% inhibition at 10 µM
Sodium-dependent noradrenaline transporter, sequence (P23975 whole entry): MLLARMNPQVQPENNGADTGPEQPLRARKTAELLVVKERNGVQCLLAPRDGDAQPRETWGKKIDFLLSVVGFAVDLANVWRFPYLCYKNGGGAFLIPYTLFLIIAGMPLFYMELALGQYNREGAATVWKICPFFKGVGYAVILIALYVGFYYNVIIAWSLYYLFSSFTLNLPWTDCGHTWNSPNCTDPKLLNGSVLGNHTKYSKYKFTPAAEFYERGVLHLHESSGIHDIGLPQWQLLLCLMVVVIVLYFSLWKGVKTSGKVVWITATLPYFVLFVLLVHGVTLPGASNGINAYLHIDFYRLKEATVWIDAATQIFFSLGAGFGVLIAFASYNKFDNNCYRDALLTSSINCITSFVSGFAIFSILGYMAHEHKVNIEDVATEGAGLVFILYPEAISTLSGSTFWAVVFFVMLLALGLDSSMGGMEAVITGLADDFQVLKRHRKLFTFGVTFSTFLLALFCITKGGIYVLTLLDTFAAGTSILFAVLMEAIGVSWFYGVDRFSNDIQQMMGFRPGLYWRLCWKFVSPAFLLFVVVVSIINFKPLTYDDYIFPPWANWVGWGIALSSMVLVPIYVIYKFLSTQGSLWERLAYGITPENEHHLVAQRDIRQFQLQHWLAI

[4] = DRUGMATRIX: Atrial Natriuretic Factor (ANF) radioligand binding (ligand: [125I] ANF (rat)); format: cell membranes, Cavia porcellus, Dunkin-Hartley, Adrenal gland, Membrane; settings: Not Active = under 50% inhibition at 10 µM
[5] = DRUGMATRIX: GABAA, Flunitrazepam, Central radioligand binding (ligand: [3H] Flunitrazepam); format: cell membranes, Rattus norvegicus, Wistar, Brain, Membrane; settings: Not Active = under 50% inhibition at 10 µM
[6] = DRUGMATRIX: Platelet-Derived Growth Factor (PDGF) radioligand binding (ligand: [125I] PDGF); format: cell-based; settings: nih3t3; Not Active = under 50% inhibition at 10 µM
Cytochrome P450 2C19 = Cytochrome P450 2C19 (Homo sapiens, UniProt P33261); settings: bti-tn-5b1-4; note: in other assays of this panel Not Active means under 50% inhibition at 10 µM
Cytochrome P450 2C19, sequence (P33261 whole entry): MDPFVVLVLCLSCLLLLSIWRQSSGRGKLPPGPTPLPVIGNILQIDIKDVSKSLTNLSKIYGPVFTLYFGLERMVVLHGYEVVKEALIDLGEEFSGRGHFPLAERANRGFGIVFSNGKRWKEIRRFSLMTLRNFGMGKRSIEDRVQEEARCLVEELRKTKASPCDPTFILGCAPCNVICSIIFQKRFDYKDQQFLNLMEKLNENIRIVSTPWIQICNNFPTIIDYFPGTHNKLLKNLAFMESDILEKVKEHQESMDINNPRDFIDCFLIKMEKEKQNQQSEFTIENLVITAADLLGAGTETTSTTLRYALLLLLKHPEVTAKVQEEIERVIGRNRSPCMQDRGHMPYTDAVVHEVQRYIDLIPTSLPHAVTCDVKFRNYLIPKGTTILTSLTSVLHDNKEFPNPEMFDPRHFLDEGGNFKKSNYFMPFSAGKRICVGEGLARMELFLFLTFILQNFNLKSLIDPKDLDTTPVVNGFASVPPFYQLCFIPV

Glucocorticoid receptor = target: T1, Glucocorticoid receptor (Homo sapiens, UniProt P04150); settings: hela s3; note: in other assays of this panel Not Active means under 50% inhibition at 10 µM
T1 sequence (P04150 whole entry): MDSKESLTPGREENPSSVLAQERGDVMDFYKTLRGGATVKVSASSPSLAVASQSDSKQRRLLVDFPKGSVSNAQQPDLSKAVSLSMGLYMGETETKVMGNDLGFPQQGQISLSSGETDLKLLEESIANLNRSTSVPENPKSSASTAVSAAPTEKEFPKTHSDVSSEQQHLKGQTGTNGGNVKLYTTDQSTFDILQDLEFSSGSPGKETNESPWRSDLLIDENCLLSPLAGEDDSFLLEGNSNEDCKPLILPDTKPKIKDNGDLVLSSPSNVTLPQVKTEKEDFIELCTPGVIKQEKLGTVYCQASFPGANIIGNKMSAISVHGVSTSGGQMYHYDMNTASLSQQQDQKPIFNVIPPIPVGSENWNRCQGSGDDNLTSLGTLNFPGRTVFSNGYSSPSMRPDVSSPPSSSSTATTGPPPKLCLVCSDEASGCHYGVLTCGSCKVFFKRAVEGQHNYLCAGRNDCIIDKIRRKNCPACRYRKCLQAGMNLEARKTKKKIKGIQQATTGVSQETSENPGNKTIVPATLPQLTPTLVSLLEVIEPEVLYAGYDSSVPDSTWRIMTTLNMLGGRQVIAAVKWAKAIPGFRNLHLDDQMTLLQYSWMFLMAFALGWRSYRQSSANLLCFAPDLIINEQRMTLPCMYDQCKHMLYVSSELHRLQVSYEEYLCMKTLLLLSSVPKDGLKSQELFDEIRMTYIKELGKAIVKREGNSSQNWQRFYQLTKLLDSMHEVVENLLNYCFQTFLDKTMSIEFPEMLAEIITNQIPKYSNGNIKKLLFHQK

O=C(O)COc1ccc(C(=O)c2cccs2)c(Cl)c1Cl
Not Active: IC50 [1] | Ki [1] | IC50 [2] | IC50 [3] | IC50 [4] | Ki [4] | IC50 [5] | Ki [5] | IC50 [6] | Ki [6] | IC50 (Cytochrome P450 2C19) | Ki (Cytochrome P450 2C19) | IC50 (Glucocorticoid receptor)

O=C(O)CCCCC1CCSS1 (stereo not drawn) [LIPOIC ACID, ALPHA]
Not Active: IC50 [1] | Ki [1] | IC50 [2] | IC50 [3] | IC50 [4] | Ki [4] | IC50 [5] | Ki [5] | IC50 [6] | Ki [6] | IC50 (Cytochrome P450 2C19) | Ki (Cytochrome P450 2C19) | IC50 (Glucocorticoid receptor)

COC(=O)[C@H]1[C@H]2C[C@@H]3c4[nH]c5cc(OC)ccc5c4CCN3C[C@H]2C[C@@H](OC(=O)c2cc(OC)c(OC)c(OC)c2)[C@@H]1OC [RESERPINE]
Not Active: IC50 [1] | Ki [1] | IC50 [2] | IC50 [3] | IC50 [4] | Ki [4] | IC50 [5] | Ki [5] | IC50 [6] | Ki [6] | IC50 (Cytochrome P450 2C19) | Ki (Cytochrome P450 2C19) | IC50 (Glucocorticoid receptor)

CC1CCC(NC(=O)N(CCCl)N=O)CC1 (stereo not given) [SEMUSTINE]
Not Active: IC50 [1] | Ki [1] | IC50 [2] | IC50 [3] | IC50 [4] | Ki [4] | IC50 [5] | Ki [5] | IC50 [6] | Ki [6] | IC50 (Cytochrome P450 2C19) | Ki (Cytochrome P450 2C19) | IC50 (Glucocorticoid receptor)

Nc1ccc(S(=O)(=O)NC(=O)c2ccccc2)cc1 [SULFABENZAMIDE]
Not Active: IC50 [1] | Ki [1] | IC50 [2] | IC50 [3] | IC50 [4] | Ki [4] | IC50 [5] | Ki [5] | IC50 [6] | Ki [6] | IC50 (Cytochrome P450 2C19) | Ki (Cytochrome P450 2C19) | IC50 (Glucocorticoid receptor)

CC(=O)OCC(COC(C)=O)OC(C)=O [TRIACETIN]
Not Active: IC50 [1] | Ki [1] | IC50 [2] | IC50 [3] | IC50 [4] | Ki [4] | IC50 [5] | Ki [5] | IC50 [6] | Ki [6] | IC50 (Cytochrome P450 2C19) | Ki (Cytochrome P450 2C19) | IC50 (Glucocorticoid receptor)

TRANSPLATIN
Not Active: IC50 [1] | Ki [1] | IC50 [2] | Ki [2] | IC50 [3] | Ki [3] | IC50 [4] | Ki [4] | IC50 [5] | Ki [5] | IC50 [6] | Ki [6] | IC50 (Cytochrome P450 2C19) | Ki (Cytochrome P450 2C19) | IC50 (Glucocorticoid receptor) | Ki (Glucocorticoid receptor)

ZIRCONIUM(IV) CHLORIDE
Not Active: IC50 [1] | Ki [1] | IC50 [2] | Ki [2] | IC50 [3] | Ki [3] | IC50 [4] | Ki [4] | IC50 [5] | Ki [5] | IC50 [6] | Ki [6] | IC50 (Cytochrome P450 2C19) | Ki (Cytochrome P450 2C19) | IC50 (Glucocorticoid receptor) | Ki (Glucocorticoid receptor)
